Test results reported in ChEMBL document CHEMBL1641496, “Imidazolylchromanone oxime ethers as potential anticonvulsant agents: Anticonvulsive evaluation in PTZ-kindling model of epilepsy and SAR study” (Bioorg Med Chem Lett, 2011).

Experiments:
Rattus norvegicus [1] = assay: Anticonvulsant activity against PTZ-induced kindling Wistar rat model assessed as duration of behavirol seizure at 30 mg/kg, ip; format: functional; settings: route intraperitoneal
Rattus norvegicus [2] = assay: Anticonvulsant activity against PTZ-induced kindling Wistar rat model assessed as seizure latency at 30 mg/kg, ip; format: functional; settings: route intraperitoneal
Rattus norvegicus [3] = assay: Neurotoxicity in Wistar rat at 30 mg/kg, ip by rotarod test; format: toxicity, organism-based; parameters: dose 30 mg/kg, route intraperitoneal; settings: in vivo
Rattus norvegicus [4] = assay: Neurotoxicity in Wistar rat assessed as motor impairment at 30 mg/kg, ip by rotarod test; format: toxicity, organism-based; parameters: dose 30 mg/kg, route intraperitoneal; settings: in vivo
Rattus norvegicus [5] = assay: Neurotoxicity in Wistar rat assessed as motor impairment at 100 mg/kg, ip by rotarod test; format: toxicity, organism-based; parameters: dose 100 mg/kg, route intraperitoneal; settings: in vivo
Rattus norvegicus [6] = assay: Anticonvulsant activity against PTZ-induced kindling Wistar rat model assessed as seizure latency at 200 mg/kg, ip; format: functional; settings: route intraperitoneal
Rattus norvegicus [7] = assay: Anticonvulsant activity against PTZ-induced kindling Wistar rat model assessed as duration of behavirol seizure at 200 mg/kg, ip; format: functional; settings: route intraperitoneal
Rattus norvegicus [8] = assay: Anticonvulsant activity against PTZ-induced kindling Wistar rat model assessed as seizure latency at 100 mg/kg, ip; format: functional; settings: route intraperitoneal
Rattus norvegicus [9] = assay: Anticonvulsant activity against PTZ-induced kindling Wistar rat model assessed as duration of behavirol seizure at 100 mg/kg, ip; format: functional; settings: route intraperitoneal

SMILES | Time (Rattus norvegicus [1]) [s] | Time (Rattus norvegicus [2]) [s] | other results
O=[N+]([O-])O.c1ccc(CO/N=C2/c3ccccc3OCC2n2ccnc2)cc1 (racemic) | 49.8 | 274 | –
O=[N+]([O-])O.c1ccc(CO/N=C2\c3ccccc3OCC2n2ccnc2)cc1 (racemic) | 50.8 | 288 | –
Clc1ccc(CO/N=C2/c3ccccc3OCC2n2ccnc2)cc1.O=[N+]([O-])O (racemic) | 52 | 237 | –
Clc1ccc(CO/N=C2\c3ccccc3OCC2n2ccnc2)cc1.O=[N+]([O-])O (racemic) | 51 | 258 | –
Brc1ccc(CO/N=C2/c3ccccc3OCC2n2ccnc2)cc1.O=[N+]([O-])O (racemic) | 54.8 | 268 | –
Brc1ccc(CO/N=C2\c3ccccc3OCC2n2ccnc2)cc1.O=[N+]([O-])O (racemic) | 56.5 | 261 | –
Clc1ccc(CO/N=C2/c3ccccc3OCC2n2ccnc2)c(Cl)c1.O=[N+]([O-])O (racemic) | 49.2 | 358 | –
Clc1ccc(CO/N=C2\c3ccccc3OCC2n2ccnc2)c(Cl)c1.O=[N+]([O-])O (racemic) | 49.3 | 293 | –
Clc1ccc(CO/N=C2/c3ccccc3OCC2n2ccnc2)cc1Cl.O=[N+]([O-])O (racemic) | 50.3 | 285 | –
Clc1ccc(CO/N=C2\c3ccccc3OCC2n2ccnc2)cc1Cl.O=[N+]([O-])O (racemic) | 51.8 | 266 | –
Clc1ccc2c(c1)OCC(n1ccnc1)/C2=N\OCc1ccccc1.O=[N+]([O-])O (racemic) | 46.7 | 323 | –
Clc1ccc(CO/N=C2/c3ccc(Cl)cc3OCC2n2ccnc2)cc1.O=[N+]([O-])O (racemic) | 47 | 467 | –
Clc1ccc(CO/N=C2/c3ccc(Cl)cc3OCC2n2ccnc2)c(Cl)c1.O=[N+]([O-])O (racemic) | 40.3 | 715 | Activity (Rattus norvegicus [3]): Non-toxic; Activity (Rattus norvegicus [4]): 25%
Clc1ccc2c(c1)OCC(n1ccnc1)/C2=N\OCc1ccc(Cl)c(Cl)c1.O=[N+]([O-])O (racemic) | 48.5 | 271 | –
CC1Oc2ccccc2/C(=N/OCc2ccccc2)C1n1ccnc1.O=[N+]([O-])O (racemic) | 52.7 | 259 | –
CC1Oc2ccccc2/C(=N/OCc2ccc(Cl)cc2)C1n1ccnc1.O=[N+]([O-])O (racemic) | 49.7 | 286 | –
CC1Oc2ccccc2/C(=N/OCc2ccc(Br)cc2)C1n1ccnc1.O=[N+]([O-])O (racemic) | 51.3 | 305 | –
CC1Oc2ccccc2/C(=N/OCc2ccc(F)cc2)C1n1ccnc1.O=[N+]([O-])O (racemic) | 52.3 | 263 | –
CC1Oc2ccccc2/C(=N/OCc2cccc(F)c2)C1n1ccnc1.O=[N+]([O-])O (racemic) | 51.5 | 321 | –
CC1Oc2ccccc2/C(=N/OCc2ccccc2F)C1n1ccnc1.O=[N+]([O-])O (racemic) | 51.7 | 254 | –
CC1Oc2ccccc2/C(=N/OCc2ccc(Cl)cc2Cl)C1n1ccnc1.O=[N+]([O-])O (racemic) | 42.8 | 644 | –
CC1Oc2ccccc2/C(=N/OCc2ccc(Cl)c(Cl)c2)C1n1ccnc1.O=[N+]([O-])O (racemic) | 47.5 | 367 | –
CC1Oc2cc(Cl)ccc2/C(=N/OCc2ccccc2)C1n1ccnc1.O=[N+]([O-])O (racemic) | 50.7 | 282 | –
CC1Oc2cc(Cl)ccc2/C(=N/OCc2ccc(Cl)cc2)C1n1ccnc1.O=[N+]([O-])O (racemic) | 45.5 | 286 | –
CC1Oc2cc(Cl)ccc2/C(=N/OCc2ccc(Cl)cc2Cl)C1n1ccnc1.O=[N+]([O-])O (racemic) | 342 | 776 | Activity (Rattus norvegicus [5]): 50%; Activity (Rattus norvegicus [3]): Non-toxic
CCCC(CCC)C(=O)[O-].[Na+] [VALPROATE SODIUM] | – | – | Time (Rattus norvegicus [6]): 900 s; Time (Rattus norvegicus [7]): 26.5 s; Time (Rattus norvegicus [8]): 817 s; Time (Rattus norvegicus [9]): 40.5 s
